Test results from ChEMBL document CHEMBL3046590, “Design and synthesis of some thiazolotriazolyl esters as anti-inflammatory and analgesic agents” (Med Chem Res, 2012).

Tests used:
Mus musculus [1] = experiment: Anti-inflammatory activity in Mus musculus BALB/c (mouse) assessed as carrageenan-induced paw swelling at 200 mg/kg, po administered 1 hr followed by carrageenan challenge measured at 180 min (reference value: 52 +/- 4.6 x 10^-2 mm); assay type: functional
Mus musculus [2] = experiment: Antioxidant activity in Mus musculus BALB/c (mouse) stomach assessed as TBARS level at 100 mg/kg, po (reference value: 80.4 +/- 5.4 nmol/g ); assay type: functional
Mus musculus [3] = experiment: Toxicity in Mus musculus BALB/c (mouse) assessed as mortality at 50 to 200 mg/kg, po after 72 hr; assay type: organism-based; set-up: dose 50-200 mg/kg, route oral; settings: in vivo
Mus musculus [4] = experiment: Anti-inflammatory activity in Mus musculus BALB/c (mouse) assessed as carrageenan-induced paw swelling at 100 mg/kg, po administered 1 hr followed by carrageenan challenge measured at 90 min (reference value: 39 +/- 5.6 x 10^-2 mm); assay type: functional
Mus musculus [5] = experiment: Anti-inflammatory activity in Mus musculus BALB/c (mouse) assessed as inhibition of carrageenan-induced paw swelling at 100 mg/kg, po administered 1 hr followed by carrageenan challenge measured at 90 min relative to control; assay type: functional
Mus musculus [6] = experiment: Anti-inflammatory activity in Mus musculus BALB/c (mouse) assessed as inhibition of carrageenan-induced paw swelling at 100 mg/kg, po administered 1 hr followed by carrageenan challenge measured at 180 min relative to control; assay type: functional
Mus musculus [7] = experiment: Toxicity in Mus musculus BALB/c (mouse) assessed as behavioral changes at 50 to 200 mg/kg, po after 72 hr; assay type: organism-based; set-up: dose 50-200 mg/kg, route oral; settings: in vivo
Mus musculus [8] = experiment: Anti-inflammatory activity in Mus musculus BALB/c (mouse) assessed as inhibition of carrageenan-induced paw swelling at 100 mg/kg, po administered 1 hr followed by carrageenan challenge measured at 270 min relative to control; assay type: functional
Mus musculus [9] = experiment: Anti-inflammatory activity in Mus musculus BALB/c (mouse) assessed as carrageenan-induced paw swelling at 200 mg/kg, po administered 1 hr followed by carrageenan challenge measured at 270 min (reference value: 78 +/- 8.4 x 10^-2 mm); assay type: functional
Mus musculus [10] = experiment: Anti-inflammatory activity in Mus musculus BALB/c (mouse) assessed as carrageenan-induced paw swelling at 200 mg/kg, po administered 1 hr followed by carrageenan challenge measured at 360 min (reference value: 105 +/- 4.5 x 10^-2 mm); assay type: functional
Mus musculus [11] = experiment: Anti-inflammatory activity in Mus musculus BALB/c (mouse) assessed as carrageenan-induced paw swelling at 100 mg/kg, po administered 1 hr followed by carrageenan challenge measured at 270 min (reference value: 78 +/- 8.4 x 10^-2 mm); assay type: functional
Mus musculus [12] = experiment: Anti-inflammatory activity in Mus musculus BALB/c (mouse) assessed as carrageenan-induced paw swelling at 200 mg/kg, po administered 1 hr followed by carrageenan challenge measured at 90 min (reference value: 39 +/- 5.6 x 10^-2 mm); assay type: functional
Mus musculus [13] = experiment: Anti-inflammatory activity in Mus musculus BALB/c (mouse) assessed as carrageenan-induced paw swelling at 50 mg/kg, po administered 1 hr followed by carrageenan challenge measured at 180 min (reference value: 52 +/- 4.6 x 10^-2 mm); assay type: functional
Mus musculus [14] = experiment: Anti-inflammatory activity in Mus musculus BALB/c (mouse) assessed as carrageenan-induced paw swelling at 100 mg/kg, po administered 1 hr followed by carrageenan challenge measured at 360 min (reference value: 105 +/- 4.5 x 10^-2 mm); assay type: functional
Mus musculus [15] = experiment: Anti-inflammatory activity in Mus musculus BALB/c (mouse) assessed as carrageenan-induced paw swelling at 50 mg/kg, po administered 1 hr followed by carrageenan challenge measured at 360 min (reference value: 105 +/- 4.5 x 10^-2 mm); assay type: functional
Mus musculus [16] = experiment: Anti-inflammatory activity in Mus musculus BALB/c (mouse) assessed as carrageenan-induced paw swelling at 100 mg/kg, po administered 1 hr followed by carrageenan challenge measured at 180 min (reference value: 52 +/- 4.6 x 10^-2 mm); assay type: functional
Mus musculus [17] = experiment: Anti-inflammatory activity in Mus musculus BALB/c (mouse) assessed as inhibition of carrageenan-induced paw swelling at 50 mg/kg, po administered 1 hr followed by carrageenan challenge measured at 360 min relative to control; assay type: functional
Mus musculus [18] = experiment: Anti-inflammatory activity in Mus musculus BALB/c (mouse) assessed as inhibition of carrageenan-induced paw swelling at 100 mg/kg, po administered 1 hr followed by carrageenan challenge measured at 360 min relative to control; assay type: functional
Mus musculus [19] = experiment: Anti-inflammatory activity in Mus musculus BALB/c (mouse) assessed as carrageenan-induced paw swelling at 50 mg/kg, po administered 1 hr followed by carrageenan challenge measured at 270 min (reference value: 78 +/- 8.4 x 10^-2 mm); assay type: functional
Mus musculus [20] = experiment: Anti-inflammatory activity in Mus musculus BALB/c (mouse) assessed as carrageenan-induced paw swelling at 50 mg/kg, po administered 1 hr followed by carrageenan challenge measured at 90 min (reference value: 39 +/- 5.6 x 10^-2 mm); assay type: functional
Mus musculus [21] = experiment: Analgesic activity in Mus musculus BALB/c (mouse) assessed as inhibition of acetic acid-induced writhing at 100 mg/kg, po administered 1 hr followed by acetic acid challenge measured for 10 min; assay type: functional
Mus musculus [22] = experiment: Anti-inflammatory activity in Mus musculus BALB/c (mouse) assessed as inhibition of carrageenan-induced paw swelling at 200 mg/kg, po administered 1 hr followed by carrageenan challenge measured at 270 min relative to control; assay type: functional
Mus musculus [23] = experiment: Anti-inflammatory activity in Mus musculus BALB/c (mouse) assessed as inhibition of carrageenan-induced paw swelling at 200 mg/kg, po administered 1 hr followed by carrageenan challenge measured at 180 min relative to control; assay type: functional
Mus musculus [24] = experiment: Anti-inflammatory activity in Mus musculus BALB/c (mouse) assessed as inhibition of carrageenan-induced paw swelling at 200 mg/kg, po administered 1 hr followed by carrageenan challenge measured at 90 min relative to control; assay type: functional
Mus musculus [25] = experiment: Anti-inflammatory activity in Mus musculus BALB/c (mouse) assessed as inhibition of carrageenan-induced paw swelling at 200 mg/kg, po administered 1 hr followed by carrageenan challenge measured at 360 min relative to control; assay type: functional
Mus musculus [26] = experiment: Anti-inflammatory activity in Mus musculus BALB/c (mouse) assessed as inhibition of carrageenan-induced paw swelling at 10 mg/kg, po administered 1 hr followed by carrageenan challenge measured at 90 min relative to control; assay type: functional
Mus musculus [27] = experiment: Anti-inflammatory activity in Mus musculus BALB/c (mouse) assessed as inhibition of carrageenan-induced paw swelling at 10 mg/kg, po administered 1 hr followed by carrageenan challenge measured at 180 min relative to control; assay type: functional
Mus musculus [28] = experiment: Anti-inflammatory activity in Mus musculus BALB/c (mouse) assessed as inhibition of carrageenan-induced paw swelling at 10 mg/kg, po administered 1 hr followed by carrageenan challenge measured at 360 min relative to control; assay type: functional
Mus musculus [29] = experiment: Anti-inflammatory activity in Mus musculus BALB/c (mouse) assessed as inhibition of carrageenan-induced paw swelling at 10 mg/kg, po administered 1 hr followed by carrageenan challenge measured at 270 min relative to control; assay type: functional

Structure (SMILES) | Activity (Mus musculus [1]) [×10⁻² mm] | Activity (Mus musculus [2]) [nmol/g] | Activity (Mus musculus [3]) | Activity (Mus musculus [4]) [×10⁻² mm] | Activity (Mus musculus [7]) | Activity (Mus musculus [9]) [×10⁻² mm] | Activity (Mus musculus [10]) [×10⁻² mm] | Activity (Mus musculus [11]) [×10⁻² mm] | Activity (Mus musculus [12]) [×10⁻² mm] | Activity (Mus musculus [13]) [×10⁻² mm] | Activity (Mus musculus [14]) [×10⁻² mm] | Activity (Mus musculus [15]) [×10⁻² mm] | Activity (Mus musculus [16]) [×10⁻² mm] | inhibition in vivo at 100 mg/kg (Mus musculus [18]) [%] | Activity (Mus musculus [19]) [×10⁻² mm] | Activity (Mus musculus [20]) [×10⁻² mm] | other results
COc1cc(CCC2=NC(=S)N=N2)cc(OC)c1OC | 50.5 | 79.1 | Non-toxic | 28 | Non-toxic | 70.3 | 106.7 | 37.3 | 39.7 | 48.2 | 65.1 | 84.1 | 30.8 | 38 | 74.5 | 52.6 | inhibition in vivo at 100 mg/kg (Mus musculus [5]): 28.2%; inhibition in vivo at 100 mg/kg (Mus musculus [6]): 40.8%; inhibition in vivo at 100 mg/kg (Mus musculus [8]): 52.2%; inhibition in vivo at 50 mg/kg (Mus musculus [17]): 19.9%
CCOC(=O)Cc1csc2nc(-c3ccc(Cl)cc3)nn12 | 37.2 | 157.2 | Non-toxic | 43.7 | Non-toxic | 58.6 | 86.7 | 82.5 | 29.1 | 66.1 | 70 | 105 | 52.5 | 33.3 | 88.5 | 61 | inhibition in vivo at 100 mg/kg (Mus musculus [21]): 38.5%; inhibition in vivo at 200 mg/kg (Mus musculus [22]): 24.9%; inhibition in vivo at 200 mg/kg (Mus musculus [23]): 28.5%; inhibition in vivo at 200 mg/kg (Mus musculus [24]): 25.4%; inhibition in vivo at 200 mg/kg (Mus musculus [25]): 17.4%
COc1ccc2c(c1)c(CC(=O)O)c(C)n2C(=O)c1ccc(Cl)cc1 [INDOMETHACIN] | – | – | Non-toxic | – | Non-toxic | – | – | – | – | – | – | – | – | – | – | – | inhibition in vivo at 10 mg/kg (Mus musculus [26]): 6.9%; inhibition in vivo at 10 mg/kg (Mus musculus [27]): 56.7%; inhibition in vivo at 10 mg/kg (Mus musculus [28]): 26.7%; inhibition in vivo at 10 mg/kg (Mus musculus [29]): 34.6%
